Measured values: patent US20260133203A1, “DETECTION OF FUMARATE-DERIVED MODIFICATION IN A TEST SAMPLE” (UNIVERSITY OF SOUTH CAROLINA, priority 2017, published 2026)
Counter-ions that a name gives are not always drawn.

Test system: N1E-115 neuroblastoma cells differentiated to a neuronal phenotype
Assay: Western blot detection of succinated proteins with anti-2SC antibody after KOH hydrolysis of the ester
Assay type: cell-based, mouse
Settings: DMF for 24 hours, hydrolysis of the ester in the presence of KOH
Method: N1E-115 cells (subclone N1E-115-1 neuroblastoma cells) were obtained from Sigma (08062511, St. Louis, MO). The cells were grown and expanded in non-differentiation medium (NDM): 90% DMEM (Gibco™, Grand Island, NY) with 25 mM glucose, no pyruvate, 25 mM HEPES, 4 mM glutamine and 10% fetal bovine serum (FBS, Atlanta Biologicals, Atlanta, GA). At 80% confluence, the cells were differentiated into neurons in the presence of 2% FBS and 1.25% dimethyl sulfoxide in DMEM for 5 days. In addition to the assessment of the neuronal phenotype by light microscopy, the detection of synaptophysin protein levels was used to confirm successful differentiation. During the final 6 or 24 hours of differentiation, the cells were treated with 10-100 µM DMF and harvested as described above for primary neurons, with the addition of phosphatase inhibitors to the DPBS washes and the RIPA buffer used for scraping to prevent dephosphorylation of CRMP-2. […] To ensure that the succinated proteins detected were solely of neuronal origin, N1E-115 neuroblastoma cells were differentiated to a neuronal phenotype (confirmed by increased synaptophysin content) and treated with DMF for 24 hours. […]

With `COC(=O)/C=C/C(=O)OC` [DMF, dimethyl fumarate] as the compound, how does the “detection of succinated proteins using the anti-2SC antibody” value read?
Its value is “detection of a large number of succinated proteins”.
